According to ChEMBL document CHEMBL3045522, “Responses of dry beans (Phaseolus vulgaris L.) to sulfentrazone” (Crop Prot, 2007):

Columns and labels:
Type in all cases: organism-based
[1] = test system: Phaseolus vulgaris; assay: Phytotoxicity against Phaseolus vulgaris (Pinto dry beans) assessed as plant height at 840 g a.i./ha applied pre-emergence measured at 28 days post-emergence (reference value: 32 +/- 1 cm); conditions: in vivo, other, 672 h
[2] = test system: Phaseolus vulgaris; assay: Phytotoxicity against Phaseolus vulgaris (Kidney dry beans) assessed as reduction in shoot dry weight at 840 g a.i./ha applied pre-emergence measured at 42 days post-emergence relative to control; parameters: scale not given: the % may be the effect or the level left; conditions: in vivo, other, 1008 h
[3] = test system: Phaseolus vulgaris; assay: Phytotoxicity against Phaseolus vulgaris (Pinto dry beans) assessed as visual crop injury at 420 to 840 g a.i./ha applied pre-emergence measured at 28 days post-emergence relative to control; conditions: in vivo, other, 672 h
[4] = test system: Phaseolus vulgaris; assay: Phytotoxicity against Phaseolus vulgaris (Yellow eye dry beans) assessed as plant height at 840 g a.i./ha applied pre-emergence measured at 28 days post-emergence (reference value: 33 +/- 1 cm); conditions: in vivo, other, 672 h
[5] = test system: Phaseolus vulgaris; assay: Phytotoxicity against Phaseolus vulgaris (White dry beans) assessed as plant height at 420 g a.i./ha applied pre-emergence measured at 28 days post-emergence (reference value: 31 +/- 2 cm); conditions: in vivo, other, 672 h
[6] = test system: Phaseolus vulgaris; assay: Phytotoxicity against Phaseolus vulgaris (Cranberry dry beans) assessed as visual crop injury at 420 to 840 g a.i./ha applied pre-emergence measured at 28 days post-emergence relative to control; conditions: in vivo, other, 672 h
[7] = test system: Phaseolus vulgaris; assay: Phytotoxicity against Phaseolus vulgaris (Cranberry dry beans) assessed as plant height at 420 g a.i./ha applied pre-emergence measured at 28 days post-emergence (reference value: 33 +/- 1 cm); conditions: in vivo, other, 672 h
[8] = test system: Phaseolus vulgaris; assay: Phytotoxicity against Phaseolus vulgaris (Brown dry beans) assessed as shoot dry weight at 840 g a.i./ha applied pre-emergence measured at 42 days post-emergence (reference value: 123 +/- 7 g/m); conditions: in vivo, other, 1008 h
[9] = test system: Phaseolus vulgaris; assay: Phytotoxicity against Phaseolus vulgaris (Kidney dry beans) assessed as plant height at 840 g a.i./ha applied pre-emergence measured at 28 days post-emergence (reference value: 33 +/- 1 cm); conditions: in vivo, other, 672 h
[10] = test system: Phaseolus vulgaris; assay: Phytotoxicity against Phaseolus vulgaris (Yellow eye dry beans) assessed as yield at 840 g a.i./ha applied pre-emergence (reference value: 2 +/- 0.1 tons/ha); conditions: in vivo, other
[11] = test system: Phaseolus vulgaris; assay: Phytotoxicity against Phaseolus vulgaris (Black dry beans) assessed as plant height at 840 g a.i./ha applied pre-emergence measured at 28 days post-emergence (reference value: 28 +/- 1 cm); conditions: in vivo, other, 672 h
[12] = test system: Phaseolus vulgaris; assay: Phytotoxicity against Phaseolus vulgaris (Otebo dry beans) assessed as plant height at 840 g a.i./ha applied pre-emergence measured at 28 days post-emergence (reference value: 31 +/- 2 cm); conditions: in vivo, other, 672 h
[13] = test system: Phaseolus vulgaris; assay: Phytotoxicity against Phaseolus vulgaris (dry bean) assessed as visual crop injury at 840 g a.i./ha applied pre-emergence measured at 7 days post-emergence relative to control; conditions: in vivo, other, 168 h
[14] = test system: Phaseolus vulgaris; assay: Phytotoxicity against Phaseolus vulgaris (Cranberry dry beans) assessed as shoot dry weight at 420 g a.i./ha applied pre-emergence measured at 42 days post-emergence (reference value: 138 +/- 8 g/m); conditions: in vivo, other, 1008 h
[15] = test system: Phaseolus vulgaris; assay: Phytotoxicity against Phaseolus vulgaris (Brown dry beans) assessed as shoot dry weight at 420 g a.i./ha applied pre-emergence measured at 42 days post-emergence (reference value: 123 +/- 7 g/m); conditions: in vivo, other, 1008 h
[16] = test system: Phaseolus vulgaris; assay: Phytotoxicity against Phaseolus vulgaris (dry bean) assessed as visual crop injury at 420 g a.i./ha applied pre-emergence measured at 7 days post-emergence relative to control; conditions: in vivo, other, 168 h
[17] = test system: Phaseolus vulgaris; assay: Phytotoxicity against Phaseolus vulgaris (Otebo dry beans) assessed as visual crop injury at 420 to 840 g a.i./ha applied pre-emergence measured at 28 days post-emergence relative to control; conditions: in vivo, other, 672 h
[18] = test system: Phaseolus vulgaris; assay: Phytotoxicity against Phaseolus vulgaris (Black dry beans) assessed as plant height at 420 g a.i./ha applied pre-emergence measured at 28 days post-emergence (reference value: 28 +/- 1 cm); conditions: in vivo, other, 672 h
[19] = test system: Phaseolus vulgaris; assay: Phytotoxicity against Phaseolus vulgaris (dry beans) assessed as change in seed moisture content at 420 to 840 g a.i./ha applied pre-emergence relative to control; conditions: in vivo, other
[20] = test system: Phaseolus vulgaris; assay: Phytotoxicity against Phaseolus vulgaris (Pinto dry beans) assessed as shoot dry weight at 420 g a.i./ha applied pre-emergence measured at 42 days post-emergence (reference value: 134 +/- 11 g/m); conditions: in vivo, other, 1008 h
[21] = test system: Phaseolus vulgaris; assay: Phytotoxicity against Phaseolus vulgaris (Kidney dry beans) assessed as plant height at 420 g a.i./ha applied pre-emergence measured at 28 days post-emergence (reference value: 33 +/- 1 cm); conditions: in vivo, other, 672 h
[22] = test system: Phaseolus vulgaris; assay: Phytotoxicity against Phaseolus vulgaris (Cranberry dry beans) assessed as yield at 420 g a.i./ha applied pre-emergence (reference value: 2.7 +/- 0.1 tons/ha); conditions: in vivo, other
[23] = test system: Phaseolus vulgaris; assay: Phytotoxicity against Phaseolus vulgaris (Otebo dry beans) assessed as reduction in yield at 840 g a.i./ha applied pre-emergence relative to control; parameters: scale not given: the % may be the effect or the level left; conditions: in vivo, other
[24] = test system: Phaseolus vulgaris; assay: Phytotoxicity against Phaseolus vulgaris (Brown dry beans) assessed as yield at 420 g a.i./ha applied pre-emergence (reference value: 2.3 +/- 0.1 tons/ha); conditions: in vivo, other
[25] = test system: Phaseolus vulgaris; assay: Phytotoxicity against Phaseolus vulgaris (Otebo dry beans) assessed as yield at 420 g a.i./ha applied pre-emergence (reference value: 3.1 +/- 0.1 tons/ha); conditions: in vivo, other
[26] = test system: Phaseolus vulgaris; assay: Phytotoxicity against Phaseolus vulgaris (Otebo dry beans) assessed as plant height at 420 g a.i./ha applied pre-emergence measured at 28 days post-emergence (reference value: 31 +/- 2 cm); conditions: in vivo, other, 672 h
[27] = test system: Phaseolus vulgaris; assay: Phytotoxicity against Phaseolus vulgaris (Brown dry beans) assessed as plant height at 840 g a.i./ha applied pre-emergence measured at 28 days post-emergence (reference value: 33 +/- 1 cm); conditions: in vivo, other, 672 h
[28] = test system: Phaseolus vulgaris; assay: Phytotoxicity against Phaseolus vulgaris (Black dry beans) assessed as reduction in shoot dry weight at 840 g a.i./ha applied pre-emergence measured at 42 days post-emergence relative to control; parameters: scale not given: the % may be the effect or the level left; conditions: in vivo, other, 1008 h
[29] = test system: Phaseolus vulgaris; assay: Phytotoxicity against Phaseolus vulgaris (dry bean) assessed as visual crop injury at 840 g a.i./ha applied pre-emergence measured at 28 days post-emergence relative to control; conditions: in vivo, other, 672 h

Structure (SMILES): Cc1nn(-c2cc(NS(C)(=O)=O)c(Cl)cc2Cl)c(=O)n1C(F)F [SULFENTRAZONE]
- Activity [1]: 26 cm
- Activity [2]: 35%
- Activity [3]: 9.2%
- Activity [4]: 25 cm
- Activity [5]: 27 cm
- Activity [6]: 17.6%
- Activity [7]: 28 cm
- Activity [8]: 121 g/m
- Activity [9]: 25 cm
- Crop_yield [10]: 1.4 tons/ha
- Activity [11]: 21 cm
- Activity [12]: 23 cm
- Activity [13]: 26%
- Activity [14]: 138 g/m
- Activity [15]: 134 g/m
- Activity [16]: 9%
- Activity [17]: 13.9%
- Activity [18]: 26 cm
- Activity [19]: Non-toxic
- Activity [20]: 149 g/m
- Activity [21]: 29 cm
- Crop_yield [22]: 2.4 tons/ha
- Activity [23]: 26%
- Crop_yield [24]: 2.3 tons/ha
- Crop_yield [25]: 3 tons/ha
- Activity [26]: 28 cm
- Activity [27]: 28 cm
- Activity [28]: 35%
- Activity [29]: 22%
